The assay concerns the target T1, human factor Xa (Homo sapiens, UniProt P00742).
T1 construct: 25 μl human factor Xa (Enzyme Research Laboratories, Inc; South Bend, Ind.); purchased Enzyme Research Laboratories, Inc; South Bend, Ind
Nature of the assay: Factor Xa chromogenic assay (substrate S-2765).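 Further: purified enzyme, compound preincubated with the enzyme for 10 min before substrate addition starts the reaction.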 It counts as biochemical. To be noted: read-out: Ki(FXa).
T1 sequence (P00742 235-488 limits assumed): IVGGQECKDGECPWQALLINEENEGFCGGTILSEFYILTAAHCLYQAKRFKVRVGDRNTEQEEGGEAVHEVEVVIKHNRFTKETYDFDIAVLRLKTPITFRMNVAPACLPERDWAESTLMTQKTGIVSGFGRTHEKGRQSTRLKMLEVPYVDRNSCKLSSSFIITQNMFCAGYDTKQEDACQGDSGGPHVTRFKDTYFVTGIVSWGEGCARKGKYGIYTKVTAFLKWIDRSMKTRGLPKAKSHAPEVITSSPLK
T1 sequence (P00742 41-179 partner limits assumed): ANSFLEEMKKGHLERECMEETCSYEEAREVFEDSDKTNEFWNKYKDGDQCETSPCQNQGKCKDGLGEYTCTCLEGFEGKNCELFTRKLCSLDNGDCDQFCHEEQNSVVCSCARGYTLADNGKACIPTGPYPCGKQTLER
One may read the Ki as the dissociation constant of the complex between target and ligand, obtained from inhibition or displacement. Consider `O=C(NCC1CCN(c2ccncc2)CC1)c1cccc(CNCc2ccc(Cl)cc2Cl)c1` [Example 233, 3-[(2,4-Dichloro-benzylamino)-methyl]-N-(3,4,5,6-tetrahydro-2H-[1,4′]bipyridinyl-4-ylmethyl)-benzamide], for which the Ki is 0.275 µM.

Turning to `Cc1ccc(C(=O)NCC2CCN(c3ccncc3)CC2)cc1OCc1ccc(Cl)cc1` [Example 239], the inhibition constant (Ki) stood at 3.84 µM.

For the compound `COc1ccc(COc2cc(C(=O)NCC3CCN(c4ccncc4)CC3)ccc2C)cc1` [Example 240], the Ki was determined as 1.34 µM.

Turning to `COc1cccc(COc2cc(C(=O)NCC3CCN(c4ccncc4)CC3)ccc2C)c1` [Example 241], the Ki amounted to 2.17 µM.

For `Cc1ccc(C(=O)NCC2CCN(c3ccncc3)CC2)cc1OCc1ccc(OC(F)(F)F)cc1` [Example 242], the Ki came out at 2.94 µM.

(Values after patent US7067665B2, “Oxybenzamide derivatives useful for inhibiting factor Xa or Vlla” (Sanofi-Aventis Deutschland GmbH, priority 2000, dated 2006).)
